The assay relates to apoptotic cells in A549 tumor tissue xenotransplanted in nude mouse. As to the kind of experiment: Histological analysis of tumor targeting (Example 8). It counts as in vivo. The note with it: fluorescein-labeled peptide, tail vein, 50 μM. As to the method: All animal experiments were performed in accordance with the guideline of the Institutional Animal Care and Use Committee. For tumor xenotransplantation, human lung cancer cells (A549, 1×10^6 cells) suspended in RMPI-1640 medium was subcutaneously injected at the right upper or lower limb of a 6-week-old male BALB/c nude mouse (Hyochang Science). Then, 3 to 4 weeks were given for the tumor to grow to a size of 0.5 to 1 cm. The A549 cell line used in the experiment was cultured in RMPI-1640 medium containing 10% fetal bovine serum (FBS) in which antibiotics (penicillin and streptomycin) were included. Subculturing was performed every 3 or 4 days.
The peptides used in the present invention were fluorescein-attached form at the N-terminal. They were synthesized according to the standard Fmoc technique and then isolated through HPLC. The peptide synthesis was performed by an expertise company (Peptron). […]
For histological analysis, the mouse was anesthetized and the abdomen was cut open. […] After treatment with a mounting solution containing the nuclear stain 4′,6-diamidino-2-phenylindole (DAPI) (Invitrogen), images of the cells were obtained under a fluorescence microscope (Zeiss).

Entries after “also recorded” stand apart in the source; their conditions may differ. Where no end group is shown, it is not given here.

Take “CSVAPR (also: fluorescein or Cy7.5 label) [ApoPep-2, peptide CSVAPR screened for endothelial cells; used fluorescein- or Cy7.5-labeled]”: the “binding to cells stained by TUNEL (apoptotic cells) in the tumor tissue” value (2 hours) is “target the tumor tissue and mainly bind to the tumor cells undergoing apoptosis; also recorded: binds to the cells stained by TUNEL”. Besides, the “peptide fluorescence observed in the tumor tissue” value (2 hours circulation) was “observed in the tumor tissue”.

Source of the values: US8993721B2, “Peptides for targeting apoptotic cells and uses thereof” (Kyungpook National University Industry-Academic Cooperation …, priority 2008, dated 2015).
